{"source": "patent US20260226036A1", "about": "“THIOUREA ANTIO[…] NEURO[…]” (priority 2023, published 2026)", "key": {"[1]": {"experiment": "Neuroprotection MTT assay in SHSY5Y cells", "assay_type": "cell-based, human", "conditions": "insult agent alone, HT22 or SHSY5Y cells, not told apart, read-out: cell proliferation (viable cells, MTT); for viability: 24 h", "description": "MTT assay was used for measuring viable cells at absorbance of 490 nm. […] (FIGS. 5C-5D)."}, "[2]": {"test_system": "IL-1β cytokine", "experiment": "IL-1β cytokine ELISA of SHSY-5Y supernatants", "assay_type": "cell-based, human", "conditions": "cocaine 1.5 mM or METH 3.5 mM alone; 24 h", "protocol": "Supernatants were collected and the IL-1β cytokine concentration was assessed using ELISA kit and following manufacturer instruction (RayBiotech). […] N=3, p<0.05; p<0.01, One-way ANOVA, GraphPad Prism."}, "[3]": {"test_system": "SW mice", "experiment": "Cocaine-conditioned locomotion, expression test", "assay_type": "in vivo, mouse", "conditions": "Paired mice, cocaine 15 mg/kg 24 h earlier; 10 mg/kg prior to testing", "protocol": "The goal of this pilot study was to determine if the novel small molecule was effective in preventing cocaine-conditioned motor activity of SW mice. […] Cocaine results in enhanced locomotor activity in mice. Mice that were previously injected with 15 mg/kg cocaine, either in their home cages (Unpaired) or in the novel test environment (Paired), were tested 24 h later."}, "[4]": {"test_system": "mouse model of CPP", "experiment": "Mouse model of CPP", "assay_type": "in vivo"}, "[5]": {"test_system": "methionine synthase (MS)", "experiment": "Intracellular methionine synthase ELISA of SH-SY5Y cell lysate", "assay_type": "cell-based, human", "conditions": "cocaine 1.5 mM alone; 24 hours; FIG. 6B", "protocol": "Cell lysates were collected and quantified with Pierce™ BCA Protein Assay. Level of intracellular methionine synthase (MS) were assessed using ELISA of the cell lysate."}, "[6]": {"test_system": "catalase (CAT)", "experiment": "Catalase ELISA in SH-SY5Y cells", "assay_type": "cell-based, human", "conditions": "cocaine 1.5 mM alone; 24 hours", "protocol": "Cell lysates were collected and quantified with Pierce™ BCA Protein Assay. Level of intracellular SOD, catalase, glutathione peroxidase and total antioxidant concentration were assessed using ELISA kits."}}, "data": [{"compound": "CN[C@@H](C)Cc1ccccc1", "note": "[METH, methamphetamine]", "values": [{"measurement": "viability", "setting": "[1]", "result": "~50", "unit": "%"}, {"measurement": "IL-1β", "setting": "[2]", "result": "trend in increase"}]}, {"compound": "CC(C)(C)OO", "note": "[TBHP, t-butyl hydrogen peroxide]", "values": [{"measurement": "viability at 24 h", "setting": "[1]", "result": "~50", "unit": "%"}]}, {"compound": "CNC(=S)NC", "note": "[DMTU, dimethyl thiourea]", "values": [{"measurement": "expression of increased (cocaine-conditioned) locomotor activity", "setting": "[3]", "result": "effective"}, {"measurement": "bioactivity in the mouse model of CPP", "setting": "[4]; 5 mg/kg", "result": "potent bioactivity"}, {"measurement": "bioactivity in the mouse model of CPP", "setting": "[4]; 10 mg/kg", "result": "potent bioactivity"}]}, {"compound": "COC(=O)[C@H]1[C@@H](OC(=O)c2ccccc2)C[C@@H]2CC[C@H]1N2C", "note": "[cocaine]", "values": [{"measurement": "viability", "setting": "[1]", "result": "~50", "unit": "%"}, {"measurement": "effect on MS", "setting": "[5]", "result": "no significant effect"}, {"measurement": "CAT activity", "setting": "[6]", "result": "no significant effect"}]}]}
